Patent US20240025862A1, “SUBSTITUTED N-PHENYLURACILS AND SALTS THEREOF, AND USE THEREOF AS HERBICIDAL ACTIVE SUBSTANCES” (Bayer Aktiengesellschaft, priority 2020, published 2024)

Assays:
Format in all cases: in vivo
Oryza sativa (ORYSA) = experiment: Post-emergence crop plant compatibility, greenhouse pot test (also comparative test C); settings: for Post-emergence action against ORYSA (crop plant compatibility): vs untreated controls
Method: (§1) Seeds of monocotyledonous and dicotyledonous weeds and crop plants were placed in sandy loam in plastic or wood-fiber pots, covered with soil and cultivated in a greenhouse under controlled growth conditions. 2 to 3 weeks after sowing, the test plants were treated at the one-leaf stage. The compounds of the invention, formulated in the form of wettable powders (WP) or as emulsion concentrates (EC), were then sprayed onto the green parts of the plants as aqueous suspension or emulsion with addition of 0.5% additive at a water application rate of 600 l/ha (converted). After the test plants had been kept in the greenhouse under optimum growth conditions for about 3 weeks, the activity of the preparations was rated visually in comparison to untreated controls. For example, 100% activity=the plants have died, 0% activity=like control plants.
(§2) The observed effects on selected crop plants are reported here in comparison to the untreated controls (values in %). The appendices “a”, “b” and “c” give differentiation by different dosage with otherwise the same crop plants tested.
(§3) C. Comparative Herbicidal Action and Crop Plant Compatibility of Two Inventive Compounds (I.7-1 and I.7-115) with a Compound of Similar Structure Known from the Literature (WO2002/098227, a-17 and EP1106607, 3-14) in Post-Emergence Treatment.

Setaria viridis (SETVI) = experiment: Post-emergence herbicidal action, greenhouse pot test (also comparative test C); settings: for Post-emergence action against SETVI: 20 g/ha
Method: as §1
(§4) Tables A1 to A14 below show the effects of selected compounds of the general formula (I) according to Tables I.1 to I.33 on various harmful plants and at an application rate corresponding to 20 g/ha and less, which were obtained by the experimental method specified above. The appendices “a”, “b” and “c” give differentiation by different dosage with otherwise the same harmful plants tested.
as §3
(§5) Tables C1-C4 below show the effects of two inventive compounds (I.7-1 and I.7-115) together with a compound of similar structure known from the literature (a-17 in WO2002/098227, and 3-14 in EP1106607) in different crop plants at an application rate corresponding to 5 g/ha or less, which have been obtained by the aforementioned experimental procedure.

[1] = system: Alopecurus myosuroides (ALOMY); experiment: as above; settings: 20 g/ha, rated visually after about 3 weeks vs untreated controls, 100% = plants have died
Method: as §1, §4, §3, §5

[2] = system: Matricaria inodora (MATIN); experiment: as above
Method: as §1, §4, §3, §5

[3] = system: Echinochloa crus-galli (ECHCG); experiment: as above
Method: as §1, §4, §3, §5

[4] = system: Triticum aestivum (TRZAS); experiment: Post-emergence crop plant compatibility, greenhouse pot test; settings: vs untreated controls
Method: as §1, §2

Zea mays (ZEAMX) = experiment: as above; settings: vs untreated controls
Method: as §1, §2

[5] = system: Abutilon theophrasti (ABUTH); experiment: Post-emergence herbicidal action, greenhouse pot test; settings: rated visually after about 3 weeks vs untreated controls, 100% = plants have died
Method: as §1, §4

[6] = system: Pharbitis purpurea (PHBPU); experiment: as above
Method: as §1, §4

Veronica persica (VERPE) = experiment: as above
Method: as §1, §4

[7] = system: Polygonum convolvulus (POLCO); experiment: as above
Method: as §1, §4

[8] = system: Amaranthus retroflexus (AMARE); experiment: as above; settings: rated visually after about 3 weeks vs untreated controls, 100% = plants have died
Method: as §1, §4

Viola tricolor (VIOTR) = experiment: as above
Method: as §1, §4

SMILES | Post-emergence action against ORYSA (crop plant compatibility) (Oryza sativa (ORYSA); 1.25 g/ha) [%] | Post-emergence action against SETVI (Setaria viridis (SETVI)) [%] | Post-emergence action against SETVI in % (Setaria viridis (SETVI); dosage 5 g/ha) [%] | Post-emergence action at 20 g/ha against ALOMY in % [1] [%] | Post-emergence action against MATIN in % ([2]; dosage 20 g/ha) [%] | Post-emergence action against ECHCG in % ([3]; dosage 20 g/ha) [%] | Post-emergence action against TRZAS (crop plant compatibility) ([4]; 1.25 g/ha) [%] | Post-emergence action against ZEAMX (crop plant compatibility) (Zea mays (ZEAMX); 1.25 g/ha) [%] | Post-emergence action at 5 g/ha against ABUTH in % [5] [%] | Post-emergence action at 20 g/ha against ABUTH in % [5] [%] | Post-emergence action against PHBPU in % ([6]; dosage 5 g/ha) [%] | Post-emergence action against PHBPU in % ([6]; dosage 20 g/ha) [%] | Post-emergence action against VERPE (Veronica persica (VERPE); 5 g/ha) [%] | Post-emergence action against VERPE (Veronica persica (VERPE); 20 g/ha) [%] | Post-emergence action against POLCO in % ([7]; dosage 20 g/ha) [%] | Post-emergence action at 5 g/ha against AMARE in % [8] [%] | Post-emergence action at 20 g/ha against AMARE in % [8] [%] | Post-emergence action against VIOTR (Viola tricolor (VIOTR); 1.25 g/ha) [%] | Post-emergence action against VIOTR (Viola tricolor (VIOTR); 5 g/ha) [%] | Post-emergence action against VIOTR (Viola tricolor (VIOTR); 20 g/ha) [%] | other results
Cn1c(C(F)(F)F)cc(=O)n(-c2cc(Oc3cc(F)ccc3OCC(=O)OCC#N)c(Cl)cc2F)c1=O [I.23-176] | 0 | 100 | 100 | 100 | 80 | 100 | 10 | 20 | 100 | 100 | 90 | 100 | 100 | 100 | 100 | 100 | 100 | 90 | 100 | 100 | Post-emergence action against ORYSA (crop plant compatibility) (Oryza sativa (ORYSA); 5 g/ha): 20%; Post-emergence action against SETVI in % (Setaria viridis (SETVI); dosage 1.25 g/ha): 100%; Post-emergence action against ECHCG in % ([3]; dosage 5 g/ha): 100%; Post-emergence action at 1.25 g/ha against ABUTH in % [5]: 80%; Post-emergence action against PHBPU in % ([6]; dosage 1.25 g/ha): 90%; Post-emergence action against VERPE (Veronica persica (VERPE); 1.25 g/ha): 100%; Post-emergence action against POLCO in % ([7]; dosage 5 g/ha): 100%; Post-emergence action at 1.25 g/ha against AMARE in % [8]: 100%
COCCOC(=O)COc1ccc(F)cc1Oc1cc(-n2c(=O)cc(C(F)(F)F)n(C)c2=O)c(F)cc1Cl [I.23-1] | 0 | 100 | 100 | 90 | 100 | 100 | 20 | 20 | 100 | 100 | 80 | 80 | 100 | 100 | 100 | 100 | 100 | 80 | 100 | 100 | Post-emergence action against SETVI in % (Setaria viridis (SETVI); dosage 1.25 g/ha): 100%; Post-emergence action against MATIN in % ([2]; dosage 5 g/ha): 80%; Post-emergence action against ECHCG in % ([3]; dosage 5 g/ha): 100%; Post-emergence action at 1.25 g/ha against ABUTH in % [5]: 100%; Post-emergence action against VERPE (Veronica persica (VERPE); 1.25 g/ha): 80%; Post-emergence action against POLCO in % ([7]; dosage 1.25 g/ha): 90%; Post-emergence action against POLCO in % ([7]; dosage 5 g/ha): 100%
Cn1c(C(F)(F)F)cc(=O)n(-c2cc(Oc3ccccc3OCC(=O)OCC[N+](=O)[O-])c([N+](=O)[O-])cc2F)c1=O [I.6-183] | 0 | 100 | 100 | 90 | 100 | 80 | 0 | 20 | 100 | 100 | 100 | 100 | 100 | 100 | 100 | 100 | 100 | 90 | 100 | 100 | Post-emergence action against ORYSA (crop plant compatibility) (Oryza sativa (ORYSA); 5 g/ha): 0%; Post-emergence action against ORYSA in % (Oryza sativa (ORYSA); 20 g/ha, crop plant compatibility): 0%; Post-emergence action against MATIN in % ([2]; dosage 5 g/ha): 80%; Post-emergence action against TRZAS (crop plant compatibility) ([4]; 5 g/ha): 20%; Post-emergence action against ZEAMX (crop plant compatibility) (Zea mays (ZEAMX); 5 g/ha): 20%; Post-emergence action against PHBPU in % ([6]; dosage 1.25 g/ha): 100%; Post-emergence action at 1.25 g/ha against AMARE in % [8]: 100%
